Results published in patent US20230173076A1, “METABOLICALLY STABLE PEPTIDE ANALOGS” (UNIVERSITÉ DE STRASBOURG, priority 2016, published 2023).
Positions of bridges follow the written chain, without caps; N, C: chain ends. Non-standard residues stand in square brackets, D forms with d. Residues, ends and D or L forms follow the SMILES beside them. ξ: configuration not given here. *: point of attachment. X1 = CCN([C@@H](C)C(=O)C[C@@H](CCCCNC(=O)CCC(F)(F)C(F)(F)C(F)(F)C(F)(F)C(F)(F)C(F)(F)C(F)(F)C(F)(F)F)C(=O)NCC(N)=O)*; Ile(3ξ) = CCC(C)[C@H](N)C(=O)O

Assays:
[1] = Solubility study in water by visual observation
Protocol: (§1) The resulting solution was vortexed 1 min following by 1 min in bath sonication. Solubility was then assessed by visual observation of the resulting dispersion (Clear/Cloudy and presence of particulates).

[2] = Human plasma stability (HPLC-MS/MS); conditions: 37° C.; for Human plasma stability (t1/2): 1 μM; for half-life at 1 μM: human, plasma, Human plasma stability (t1/2)
Protocol: (§2) This procedure is designed to determine the stability of a test compound in blood or plasma from human or animal species in a 96-well plate format. The test compound is quantified at 5 time points by HPLC-MS/MS analysis.
(§3) Test concentration: 1 μM with a final DMSO concentration of 0.5%.
(§4) Experimental protocol : Blood or plasma are pre-warmed at 37° C. water bath for 5 min, followed by addition of the test compound. The incubation is performed in a 37° C. water bath for 2 h. An aliquot of the incubation mixture is transferred to acetonitrile at 0, 0.5, 1, 1.5 and 2 h, respectively. Samples are then mixed and centrifuged. Supernatants are used for HPLC-MS/MS analysis. Reference compounds Propoxycaine and propantheline are tested simultaneously with the test compound in each assay. Analytical methods Samples are analyzed by HPLC-MS/MS using selected reaction monitoring. The HPLC system consists of a binary LC pump with autosampler, a C-18 column, and a gradient. Conditions may be adjusted as necessary. Data analysis Peak areas corresponding to the test compound are recorded. The compound remaining (%) is calculated by comparing the peak area at each time point to time zero. The half-life is calculated from the slope of the initial linear range of the logarithmic curve of compound remaining (%) vs. time, assuming first order kinetics
(§5) Test concentration: 1 μM with a final DMSO concentration of 0.5%. Experimental protocol: Blood or plasma are pre-warmed at 37° C. water bath for 5 min, followed by addition of the test compound. The incubation is performed in a 37° C. water bath for 2 h. An aliquot of the incubation mixture is transferred to acetonitrile at 0, 0.5, 1, 1.5 and 2 h, respectively. Samples are then mixed and centrifuged. Supernatants are used for HPLC-MS/MS analysis. Reference compounds Propoxycaine and propantheline are tested simultaneously with the test compound in each assay. Analytical methods Samples are analyzed by HPLC-MS/MS using selected reaction monitoring. The HPLC system consists of a binary LC pump with autosampler, a C-18 column, and a gradient. Conditions may be adjusted as necessary. Data analysis Peak areas corresponding to the test compound are recorded. The compound remaining (%) is calculated by comparing the peak area at each time point to time zero. The half-life is calculated from the slope of the initial linear range of the logarithmic curve of compound remaining (%) vs. time, assuming first order kinetics
(§6) Test concentration: 1 μM with a final DMSO concentration of 0.5%. Experimental protocol: Blood or plasma are pre-warmed at 37° C. water bath for 5 min, followed by addition of the test compound. The incubation is performed in a 37° C. water bath for 2 h. An aliquot of the incubation mixture is transferred to acetonitrile at 0, 0.5, 1, 1.5 and 2 h, respectively. Samples are then mixed and centrifuged. Supernatants are used for HPLC-MS/MS analysis. Reference compounds Propoxycaine and propantheline are tested simultaneously with the test compound in each assay. Analytical methods Samples are analyzed by HPLC-MS/MS using selected reaction monitoring. The HPLC system consists of a binary LC pump with autosampler, a C-18 column, and a gradient. Conditions may be adjusted as necessary. Data analysis Peak areas corresponding to the test compound are recorded. The compound remaining (%) is calculated by comparing the peak area at each time point to time zero. The half-life is calculated from the slope of the initial linear range of the logarithmic curve of compound remaining (%) vs. time, assuming first order kinetics.

in vitro = conditions: human, plasma, Human plasma stability (t1/2)
Protocol: as §2, §3, §4, §5, §6

[3] = target: T1, human vasopressin Oxytocin receptor (Homo sapiens, UniProt P30559); test: Radioligand binding assay, human oxytocin receptor in transfected Chem-1 cells; conditions: read-out: Affinity % of inhibition à 10 nM
T1 construct: expressed in transfected cells; host or cells: Chem-1 cells (membrane homogenates)
T1 sequence (P30559 1-389): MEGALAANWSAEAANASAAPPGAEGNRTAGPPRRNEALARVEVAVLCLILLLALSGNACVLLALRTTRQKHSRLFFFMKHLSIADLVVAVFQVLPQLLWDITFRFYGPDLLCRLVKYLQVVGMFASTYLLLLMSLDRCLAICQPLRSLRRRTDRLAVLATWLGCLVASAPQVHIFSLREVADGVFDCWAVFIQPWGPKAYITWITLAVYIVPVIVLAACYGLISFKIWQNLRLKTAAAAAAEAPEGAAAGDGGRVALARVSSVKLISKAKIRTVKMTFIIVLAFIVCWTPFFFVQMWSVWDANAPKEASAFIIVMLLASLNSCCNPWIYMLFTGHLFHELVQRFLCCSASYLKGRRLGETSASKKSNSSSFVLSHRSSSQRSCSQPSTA
Protocol: Experimental protocol: […] Following incubation, the samples are filtered rapidly under vacuum through glass fiber filters (GF/B, Packard) presoaked with 0.3% PEI and rinsed several times with ice-cold 50 mM Tris-HCl and 0.1% BSA using a 96-sample cell harvester (Unifilter, Packard). The filters are dried then counted for radioactivity in a scintillation counter (Topcount, Packard) using a scintillation cocktail (Microscint 0, Packard). The results are expressed as a percent inhibition of the control radioligand specific binding.

Protocol for physchem: as §1

SMILES | solubility at 2 min [1] [µM] | half-life at 1 μM ([2]; apelin analogs table) [h] | solubility at 2 min (physchem) [µM] | inhibition at 0.01 µM [3] [%] | other results
CC[C@H](C)[C@H](NC(=O)[C@H](Cc1ccc(O)cc1)NC(=O)[C@@H](NC(=O)[C@H](CCCNC(=N)N)NC(=O)[C@@H](N)CC(=O)O)C(C)C)C(=O)N[C@@H](Cc1cnc[nH]1)C(=O)N1CCC[C@H]1C(=O)N[C@@H](Cc1ccccc1)C(=O)O [Angiotensin II, reference compound] | > 100 |  |  |  | 
CC[C@H](C)[C@H](NC(=O)[C@H](Cc1ccc(O)cc1)NC(=O)[C@@H](NC(=O)[C@H](CCCNC(=N)N)NC(=O)[C@H](CC(=O)O)NC(=O)CCC(F)(F)C(F)(F)C(F)(F)C(F)(F)C(F)(F)C(F)(F)C(F)(F)C(F)(F)F)C(C)C)C(=O)N[C@@H](Cc1cnc[nH]1)C(=O)N1CCC[C@H]1C(=O)N[C@@H](Cc1ccccc1)C(=O)O [LE120] | > 100 |  |  |  | Human plasma stability (t1/2) ([2]; angiotensin II analogs table): >24 h; half-life at 1 μM ([2]; angiotensin II analogs table): > 24 h
CSCC[C@H](NC(=O)[C@@H]1CCCN1C(=O)CNC(=O)[C@H](CCCCN)NC(=O)[C@H](Cc1c[nH]cn1)NC(=O)[C@H](CO)NC(=O)[C@H](CC(C)C)NC(=O)[C@H](CCCNC(=N)N)NC(=O)[C@@H]1CCCN1C(=O)[C@H](CCCNC(=N)N)NC(=O)[C@H](CCC(N)=O)NC(=O)CCC(F)(F)C(F)(F)C(F)(F)C(F)(F)C(F)(F)C(F)(F)C(F)(F)C(F)(F)F)C(=O)N1CCC[C@H]1C(=O)N[C@@H](Cc1ccccc1)C(=O)O [LE-122] |  | > 20.7 | > 100 |  | Human plasma stability (t1/2) ([2]; apelin analogs table): 20.68 h
CSCC[C@H](NC(=O)[C@@H]1CCCN1C(=O)CNC(=O)[C@H](CCCCN)NC(=O)[C@H](Cc1c[nH]cn1)NC(=O)[C@H](CO)NC(=O)[C@H](CC(C)C)NC(=O)[C@H](CCCNC(=N)N)NC(=O)[C@@H]1CCCN1C(=O)[C@H](CCCNC(=N)N)NC(=O)[C@H](CCC(N)=O)NC(=O)[C@@H](N)CCCCNC(=O)CCC(F)(F)C(F)(F)C(F)(F)C(F)(F)C(F)(F)C(F)(F)C(F)(F)C(F)(F)F)C(=O)N1CCC[C@H]1C(=O)N[C@@H](Cc1ccccc1)C(=O)O [LE-124] |  | 5.95 |  |  | 
CC[C@H](C)[C@@H]1NC(=O)[C@H](Cc2ccc(O)cc2)NC(=O)[C@@H](N)CSSC[C@@H](C(=O)N2CCC[C@H]2C(=O)N[C@@H](CC(C)C)C(=O)NCC(N)=O)NC(=O)[C@H](CC(N)=O)NC(=O)[C@H](CCC(N)=O)NC1=O [Oxytocin, reference compound] |  |  | > 100 | 102 | half-life at 1 μM (in vitro): 2.45 h
CCC(C)[C@@H]1NC(=O)[C@H](Cc2ccc(O)cc2)NC(=O)[C@@H](N)CSSC[C@@H](C(=O)N(CC)[C@@H](C)C(=O)C[C@@H](CCCCNC(=O)CCC(F)(F)C(F)(F)C(F)(F)C(F)(F)C(F)(F)C(F)(F)C(F)(F)C(F)(F)F)C(=O)NCC(N)=O)NC(=O)[C@H](CC(N)=O)NC(=O)[C@H](CCC(N)=O)NC1=O (some centres unmarked) [SR-11-74] (H-CY[Ile(3ξ)]QNC-X1; disulfide 1-6) |  |  | > 100 | 91.3 | half-life at 1 μM ([2]; oxytocin analogs table): 3.98 h
